Data as given in ChEMBL document CHEMBL2390944, “Discovery and optimization of arylsulfonyl 3-(pyridin-2-yloxy)anilines as novel GPR119 agonists” (Bioorg Med Chem Lett, 2013).

Assays:
[1] = in vivo; conditions: rat, iv, 0.5 mg/kg
[2] = in vitro; conditions: human, liver microsomes
[3] = Metabolic stability in mouse liver microsomes assessed as compound turnover after 30 mins; format: ADME, Microsome; conditions: read-out: Drug metabolism

SMILES | clearance [1] [mL/min/kg] | metabolised at 0.5 h [2] [%] | metabolised at 0.5 h [3] [%]
N#Cc1c(C(F)(F)F)cc(C2CC2)nc1Oc1cccc(NS(=O)(=O)c2ccc(Cl)cc2)c1 | 3.17 | 13 | 
Cc1ccc(S(=O)(=O)Nc2cccc(Oc3nc(C)cc(C)c3C#N)c2)cc1 |  | 72 | 100
